The source of these data is paper PMC7764284, “Determination of the Synthetic Cannabinoids JWH-122, JWH-210, UR-144 in Oral Fluid of Consumers by GC-MS and Quantification of Parent Compounds and Metabolites by UHPLC-MS/MS” (International Journal of Molecular Sciences, 2020).

Details of data set [1]: method as in PMID 21871150. Conditions: oral fluid; after smoking two types of herbal products; cited from earlier work.
The nature of data set [2]: Oral fluid concentration-time course of SCs and metabolites in consumers after smoking self-administration (GC-MS and UHPLC-HRMS). Conditions: for second peak concentration in OF: after the decrease at 3 h.
The mark [3] stands for this setting: consumer smoked JWH-210 3 mg, UHPLC-HRMS.
Where [4] appears, read: female, human, po, 3 mg, peak concentration (Cmax) in OF, consumer smoked JWH-210 3 mg, by UHPLC-HRMS, at 20 min.
[5] abbreviates: female, human, po, 3 mg, second peak concentration (Cmax) in OF, consumer smoked JWH-210 3 mg, UHPLC-HRMS, after 2 h.

Where only a bound is given, the exact number is not on record here.

Take `CCCCCn1cc(C(=O)c2cccc3ccccc23)c2ccccc21` [JWH-018]: the “time of peak OF concentration” value in data set [1] is on record as 20 min.

Consider `Cc1ccc(C(=O)c2cn(CCCC(C)O)c3ccccc23)c2ccccc12` (centres unmarked) [JWH-122 N-(4-OH), (1-(4-hydroxypentyl)-1H-indol-3-yl)(4-methylnaphthalen-1-yl)methanone], for which the “concentration range in OF” value in data set [2] (consumer smoked JWH-122 1 mg, UHPLC-HRMS, between 10 min and 3 h after smoking) fell in the range of 0.29 to 0.36 ng/mL. Also, the concentration at 20 min in data set [2] (female, human, po, 1 mg) is 0.29 ng/mL.

As for `Cc1ccc(C(=O)c2cn(CCCCCO)c3ccccc23)c2ccccc12` [JWH-122 N-(5-OH), (1-(5-hydroxypentyl)-1H-indol-3-yl)(4-methylnaphthalen-1-yl)-methanone], in data set [2] (consumer smoked JWH-122 1 mg, UHPLC-HRMS), the “detection of metabolite in OF” value is “only detected in traces under the LOQ”.

The term Tmax denotes the time from dosing to the highest level. Broadly, the Cmax is the maximum level reached in the sampled fluid or tissue. For the compound `CCCCCn1cc(C(=O)c2ccc(C)c3ccccc23)c2ccccc21` [JWH-122, (4-methyl-1-naphthalenyl)(1-pentyl-1H-indol-3-yl)-methanone], the “second peak concentration in OF” value is 2.00 ng/mL in data set [2] (consumer smoked JWH-122 1 mg, by GC-MS) and 1.60 ng/mL in data set [2] (consumer smoked JWH-122 1 mg, by UHPLC-HRMS). For the same compound, the Tmax in data set [2] (female, human, po, 1 mg) is 20 min. The maximum concentration (Cmax) was 4 ng/mL in data set [2] (female, human, po, 1 mg, peak concentration (Cmax) in OF, consumer smoked JWH-122 1 mg, by GC-MS, at 20 min) and 3.14 ng/mL in data set [2] (female, human, po, 1 mg, peak concentration (Cmax) in OF, consumer smoked JWH-122 1 mg, by UHPLC-HRMS, at 20 min).

Consider `CCc1ccc(C(=O)c2cn(CCCC(C)O)c3ccccc23)c2ccccc12` (centres unmarked) [JWH-210 N-(4-OH), (4-ethylnaphthalen-1-yl)(1-(4-hydroxypentyl)-1H-indol-3-yl)methanone], for which the “time of second peak concentration” value in data set [2] (setting [3]) is given as 2 h. Further, in data set [2] (female, human, po, 3 mg), the time of peak concentration (Tmax) is 20 min. Besides, the highest concentration (Cmax) in data set [2] (setting [4]) came out at 0.29 ng/mL; in data set [2] (setting [5]), 0.98 ng/mL.

Consider `CCc1ccc(C(=O)c2cn(CCCCCO)c3ccccc23)c2ccccc12` [JWH-210 N-(5-OH), (4-ethylnaphthalen-1-yl)(1-(5-hydroxypentyl)-1H-indol-3-yl)methanone], for which, in data set [2] (setting [3]), the “time of second peak concentration” value was 2 h. In addition, the time of peak concentration (Tmax) in data set [2] (female, human, po, 3 mg) was 20 min. For the same compound, the Cmax in data set [2] (setting [4]) turned out to be 0.66 ng/mL; in data set [2] (setting [5]), 0.61 ng/mL.

Take `CCCCCn1cc(C(=O)c2ccc(CC)c3ccccc23)c2ccccc21` [JWH-210, (4-ethyl-1-naphthalenyl)(1-pentyl-1H-indol-3-yl)-methanone]: the “time after which undetectable in OF” value in data set [2] (consumer smoked JWH-210 3 mg) is listed as 3 h. In addition, the Tmax in data set [2] (female, human, po, 3 mg) was 20 min. Besides, the peak concentration (Cmax) in data set [2] (female, human, po, 3 mg, peak concentration (Cmax) in OF, consumer smoked JWH-210 3 mg, by GC-MS, at 20 min) was found to be 8.1 ng/mL; in data set [2] (setting [4]), 7.3 ng/mL.

Consider `CC1(C)C(C(=O)c2cn(CCCCCO)c3ccccc23)C1(C)C` [UR-144 N-(5-OH), [1-(5-hydroxypentyl)-1H-indol-3-yl](2,2,3,3-tetramethylcyclopropyl)-methanone], for which, in data set [2] (consumer smoked UR-144 1 mg, UHPLC-HRMS, all the time-course), the “detection of metabolite in OF” value is recorded as “only detected in traces”.

On to `CCCCCn1cc(C(=O)C2C(C)(C)C2(C)C)c2ccccc21` [UR-144, (1-pentyl-1H-indol-3-yl)(2,2,3,3-tetramethylcyclopropyl)-methanone], for which the “time peak from smoking start” value in data set [2] (consumer smoked UR-144 1 mg) was 20 min. Also, the “time to decrease to undetectable values in OF” value in data set [2] (consumer smoked UR-144 1 mg) is on record as no more than 4 h. The peak concentration (Cmax) in data set [2] (male, human, po, 1 mg, Cmax in OF, consumer smoked UR-144 1 mg, by GC-MS, at 20 min) stood at 7.4 ng/mL; in data set [2] (male, human, po, 1 mg, Cmax in OF, consumer smoked UR-144 1 mg, by UHPLC-HRMS, at 20 min), 6.81 ng/mL.
